Data: US5567688A, “L-nucleosides for the treatment of hepatitis B-virus” (priority 1995, dated 1996)
Read-outs that look alike come from different tables or passages of the source.

Experiments:
EBV = test: Inhibition of EBV production in H1 cells (bioassay, EBV DP activity in superinfected Raji cells); assay type: cell-based; conditions: for IC90: human gammaherpesvirus 4, Raji, 120 h
Description: (§1) H1 cells were maintained in […] growth for two days prior to the initiation of treatment. The cells were centrifuged at 600 g for 10 min. at room temperature to separate them from the medium containing pre-existing virus particles. The H1 cells were seeded in 24 well plates at a density of 1×10^5 cells per well in 2 ml of fresh medium with or without drug and incubated at 37° C. for 5 days. The medium containing virion was saved and used for evaluating the inhibitory effect of drugs on virus production and infectivity by use of a bioassay. The virion were pelleted from the cell free medium by centrifugation at 45,000 rpm for 90 min. in a SW-50 Ti rotor (Beckman). The virion were resuspended in 1 ml growth medium and then used to infect 1×10^6 Raji cells for 48 hours. Since the level of EBV DP activity in Raji cells post superinfection is proportional to the number of virions added (unpublishedresult), the EBV specific DP activity induced was able to be measured. The inhibitory drug effect Was calculated by comparing the EBV DP activity to multiple dilution controls.
Inhibitory effect of compounds on EBV: The CD50 was performed by
exposing H1 cells to different concentrations of the compounds in normal
growth medium at 37° C. for 72 hours; the cells were then counted
and compared with controls. H1 cells were treated for 5 days and the
ID90 was determined by bioassay.

[1] = Cytotoxicity in MT2 cells (CD50); assay type: cell-based; conditions: human
[2] = Cytotoxicity in H1 cells (cell count); assay type: cell-based; conditions: 37° C., read-out: CD50
HBV = test: Inhibition of HBV DNA in 2.2.15 cells (Southern analysis); assay type: cell-based, HBV (human hepatoma 2.2.15 cells); conditions: for Therapeutic Index (DC50/ID50): HBV, CD50 / anti-HBV ID50; for IC50: Hepatitis B virus, 144 h, 2.2.15 cells, 6-day treatment, 50% inhibition of the DNA, read-out: Anti-HBV Activity ID50
Description: Human hepatoma cells with HBV (2.2.15 cells) were used in the assay. These cells were grown to confluence in minimal essential medium with 10% fetal bovine serum. The media was changed at 3-day intervals. At confluence the treatment with the drugs was initiated and then continued for three days. Another addition of the same concentration of the drug was given at this point after removal of the media from the cultures and cultures maintained for an additional period of 3 days. The medium after the 6-day treatment was harvested and the viral particles precipitated by the polyethylene glycol method. The particles were subsequently digested and then processed for Southern analysis. The blots were hybridizied to an HBV-specific probe and vital DNA amounts assessed in comparison to DNA levels from cultures not treated with the drugs. The genomic DNA was digested with Hind III and subjected to Southern analysis. Levels of the episomal DNA were determined in relation to the integrated HBV DNA. The drug concentrations that cause 50% inhibition of the DNA (ID50) as compared to the controls were calculated.

[3] = Cytotoxicity (CD50) of Table I, cell line not given; assay type: cell-based
[4] = Cytotoxicity in CEM cells (CD50); assay type: cell-based; conditions: human
mitochondrial DNA = test: Mitochondrial DNA content in H1 cells (slot blot assay); assay type: cell-based, human; conditions: 1 mM, 6 days
Description: as §1
Slot Blot Assay--The amount of mitochondrial DNA was measured by the slot blot method (2). […] The amount of mitochondrial DNA in the treated and non-treated H1 cells was quantified by densitometer (LKB Ultroscan XL).

[5] = EBV, H1 cells treated for 5 days, bioassay, read-out: ID90 (the source's name)

Compound | Therapeutic Index (CD50/ID90) (EBV; EBV, H1 cells) | IC90 (EBV; [5]) [µM] | CC50 [1] [µM] | CC50 at 72 h [2] [µM] | Therapeutic Index (DC50/ID50) (HBV) | IC50 (HBV) [µM] | CC50 [3] [µM] | CC50 [4] [µM] | IC90 (EBV; read-out: ID90) [µM] | Inhibitory effect on EBV (in words) (EBV; EBV, H1 cells, up to 100 μM) | Inhibition of mitochondrial DNA content in H1 cells (mitochondrial DNA)
CCc1cn([C@@H]2O[C@H](CO)[C@@H](O)[C@@H]2F)c(=O)[nH]c1=O [D-FEAU] | > 400 | 1 | 100 | > 400 | > 80 | 5 | > 400 | 90 |  |  | 
O=C(O)P(=O)(O)O [PFA] |  | 75 ± 5 |  |  |  |  |  |  |  |  | 
Cc1cn([C@@H]2O[C@H](CO)[C@@H](O)[C@@H]2F)c(=O)[nH]c1=O [D-FMAU] | < 100 | 0.1 | 8 to 9 | < 10 | < 5 |  | < 10 | 10 |  |  | 
CCc1cn([C@H]2O[C@@H](CO)[C@H](O)[C@H]2F)c(=O)[nH]c1=O [L-FEAU, N1-(2'-Deoxy-2'-fluoro-β-L-arabinofuranosyl)-5-ethyluracil] | 20 |  | 100 | > 400 | > 80 | > 5 | > 400 | > 100 | 20 |  | 
Nc1nc(=O)n([C@H]2O[C@@H](CO)[C@H](O)[C@H]2F)cc1I [L-FIAC, N1-(2'-Deoxy-2'-fluoro-β-L-arabinofuranosyl)-5-iodocytosine] |  |  |  |  |  |  |  |  |  | inactivity up to 100 μM | 
Nc1nc2c(ncn2CCC(CO)CO)c(=O)[nH]1 [PCV] |  | 20 ± 2 |  |  |  |  |  |  |  |  | 
Nc1nc2c(ncn2COCCO)c(=O)[nH]1 [ACV] |  | 50 ± 8 |  |  |  |  |  |  |  |  | 
Cc1cn([C@H]2O[C@@H](CO)[C@H](O)[C@H]2F)c(=O)[nH]c1=O [L-FMAU, N1-(2'-Deoxy-2'-fluoro-β-L-arabinofuranosyl)-thymine] | 182 | 5 ± 0.8 | 100 | 913 ± 70 | 9130 |  | 913 ± 70 | > 100 |  |  | No inhibition
Nc1nc2c(ncn2COC(CO)CO)c(=O)[nH]1 [DHPG] |  | 5 ± 1 |  |  |  |  |  |  |  |  | 
